Test results as given in ChEMBL document CHEMBL1201862, “PubChem BioAssay data set” (2004).
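Assay format: 96-well plates, 48-hour exposure. GI50: concentration for 50% inhibition of growth.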 Activity calls are given as the source filed them. No stated cut-off is given here; in the data, active = GI50 up to about 1.1 µM and inactive = higher.

Columns and labels:
Assay in all cases: NCI anticancer screen, dose series, 48 h
[1] = test system: Hs-578T
[2] = test system: SK-OV-3
[3] = test system: SF-295
[4] = test system: MDA-MB-231
[5] = test system: CCRF-CEM
[6] = test system: HOP-62
[7] = test system: MOLT-4
[8] = test system: UACC-62
[9] = test system: NCI-H460
[10] = test system: UACC-257
[11] = test system: SF-268
[12] = test system: PC-3
[13] = test system: HCT-116
[14] = test system: HT-29
[15] = test system: MCF7
[16] = test system: LOX IMVI
[17] = test system: K562
[18] = test system: OVCAR-8
[19] = test system: SNB-19
[20] = test system: CAKI-1

Measured: GI50

Cc1cc(C(C)(C)C)cc(CNC2CCCCC2)c1O
inactive: [1] 20.2 µM | [2] 20 µM | [3] 16 µM | [4] 18 µM | [5] 17.9 µM | [6] 20.9 µM | [7] 31.3 µM | [8] 16 µM | [9] 14.8 µM | [10] 14.9 µM | [11] 16.1 µM | [12] 16.5 µM | [13] 15.4 µM | [14] 17.3 µM | [15] 18.1 µM | [16] 16 µM | [17] 21.7 µM | [18] 17.3 µM | [19] 16.6 µM | [20] 16.4 µM

CCN(CC(=O)O)CC(=O)O
inactive: [1] > 100 µM | [2] > 100 µM | [3] > 100 µM | [4] > 100 µM | [5] > 100 µM | [6] > 100 µM | [7] > 100 µM | [8] > 100 µM | [9] > 100 µM | [10] > 100 µM | [11] > 100 µM | [12] > 100 µM | [13] > 100 µM | [14] > 100 µM | [15] > 100 µM | [16] > 100 µM | [17] > 100 µM | [18] > 100 µM | [19] > 100 µM | [20] > 100 µM

Cc1n[n+](CC(=O)c2ccccc2)c2sc(N)nn12
inactive: [1] > 100 µM | [2] > 100 µM | [3] > 100 µM | [4] > 100 µM | [5] > 100 µM | [6] > 100 µM | [7] > 100 µM | [8] > 100 µM | [9] > 100 µM | [10] > 100 µM | [11] > 100 µM | [12] > 100 µM | [13] > 100 µM | [14] > 100 µM | [15] > 100 µM | [16] > 100 µM | [17] > 100 µM | [18] > 100 µM | [19] > 100 µM | [20] > 100 µM

Cc1c[n+]([O-])c2ccccc2[n+]1[O-]
inactive: [1] > 100 µM | [2] > 100 µM | [3] > 100 µM | [4] > 100 µM | [5] > 100 µM | [6] > 100 µM | [7] > 100 µM | [8] > 100 µM | [9] > 100 µM | [10] > 100 µM | [11] > 100 µM | [12] > 100 µM | [13] > 100 µM | [14] > 100 µM | [15] > 100 µM | [16] > 100 µM | [17] > 100 µM | [18] > 100 µM | [19] > 100 µM | [20] > 100 µM

O=C1C2=C(CC3=C(C2)CS(=O)(=O)C3)C(=O)C2=C1CC1=C(C2)CS(=O)(=O)C1
inactive: [1] > 32.4 µM | [2] 38.5 µM | [3] 26.7 µM | [4] 9.59 µM | [5] 12.8 µM | [6] 20.5 µM | [7] 23.9 µM | [8] 15.8 µM | [9] > 31.5 µM | [10] 29 µM | [11] > 26.4 µM | [12] 10.8 µM | [13] 11.7 µM | [14] 8.59 µM | [15] 13.2 µM | [16] 14.3 µM | [17] 10.6 µM | [18] 24.2 µM | [19] 17.7 µM | [20] 36 µM

O=[N+]([O-])C(=C(Nc1ccccc1)Nc1ccccc1)/C(Cl)=C(\Cl)[N+](=O)[O-]
inactive: [1] 2.74 µM | [2] 20.3 µM | [3] 9.35 µM | [4] 3.88 µM | [5] 2.86 µM | [6] 10.3 µM | [7] 2.43 µM | [8] 4.58 µM | [9] 14.7 µM | [10] 5.97 µM | [11] 2.98 µM | [12] 5.65 µM | [13] 2.73 µM | [14] 3.27 µM | [15] 4.14 µM | [16] 2.92 µM | [17] 3.41 µM | [18] 1.44 µM | [19] 12.9 µM | [20] 1.61 µM

CC1(CCCC2(C)CCNC2=O)OCCO1 (stereo not given)
inactive: [1] > 10 µM | [2] > 10 µM | [3] > 10 µM | [4] > 10 µM | [5] > 10 µM | [6] > 10 µM | [7] > 10 µM | [8] > 10 µM | [9] > 10 µM | [10] > 10 µM | [11] > 10 µM | [12] > 10 µM | [13] > 10 µM | [14] > 10 µM | [15] > 10 µM | [16] > 10 µM | [17] > 10 µM | [18] > 10 µM | [19] > 10 µM | [20] > 10 µM
